Assay results: patent US11311014B2, “Crystalline forms of ethyl[3-[2-chloro-4-fluoro-5-(1-methyl-6-trifluoromethyl-2,4-dioxo-1,2,3,4-tetrahydropyrimidin-3-yl)phenoxy]-2-pyridyloxy]acetate” (BASF SE, priority 2017, dated 2022)

Columns and labels:
[1] = Storage stability of dry powder at room temperature (conversion of crystal modification); format: physicochemical; conditions: about 6 weeks
Source text: (§1) Studies on the Stability of the modifications of compound of formula (I)

[2] = Stability of modifications suspended in solvent (conversion of crystal modification); format: physicochemical
Experimental: as §1
A mixture of forms A and B was suspended in ethanol at 25° C.
Form C.II.1 (consisting of 30 wt. % of form A and 70 wt. % of form D) was suspended in ethanol at 25° C.
Form C.II.1 (consisting of 30 wt. % of form A and 70 wt. % of form D) was suspended in iso-propanol at 25° C.
Form CII.1 (consisting of 30 wt. % of form A and 70 wt. % of form D) was suspended in iso-propanol at 50° C.

## CCOC(=O)COc1ncccc1Oc1cc(-n2c(=O)cc(C(F)(F)F)n(C)c2=O)c(F)cc1Cl [form B, ethyl[3-[2-chloro-4-fluoro-5-(1-methyl-6-trifluoromethyl-2,4-dioxo-1,2,3,4-tetrahydropyrimidin-3-yl)phenoxy]-2-pyridyloxy]acetate]
[1]
  Stability of the modification: phase conversion during storage: converts partially into form A

## CCOC(=O)COc1ncccc1Oc1cc(-n2c(=O)cc(C(F)(F)F)n(C)c2=O)c(F)cc1Cl [mixture of forms A and B]
[2]; suspended in ethanol at 25° C., after 5 days
  Stability of the modification: phase conversion in suspension: converted into form A

## CCOC(=O)COc1ncccc1Oc1cc(-n2c(=O)cc(C(F)(F)F)n(C)c2=O)c(F)cc1Cl [Form C.II.1]
[2]; suspended in ethanol at 25° C., after 7 days
  Stability of the modification: phase conversion in suspension: converted into form A
[2]; suspended in iso-propanol at 25° C., after 7 days
  Stability of the modification: phase conversion in suspension: converted into form A
[2]; suspended in iso-propanol at 50° C., after 7 days
  Stability of the modification: phase conversion in suspension: converted into form A
